{"source": "patent US20240099974A1", "about": "“TREATMENT AGENT” (FUJIFILM Corporation, priority 2021, published 2024)", "origin": "cited, not measured here", "conditions": "iv; Mould et al., 2002, Ait-Oudhia, Mager and Straubinger 2014", "data": [{"molecule": "CC[C@@]1(O)C(=O)OCc2c1cc1n(c2=O)Cc2cc3c(CN(C)C)c(O)ccc3nc2-1", "note": "[topotecan]", "values": [{"measurement": "clearance in a case where topotecan is intravenously administered", "result": 18.6, "unit": "L/h"}]}]}
